As a reminder, the Km is the substrate concentration at which the rate is half of its maximum.

Our source for the Km values is article PMC6921030, “Biochemical Characterization of a Novel α/β-Hydrolase/FSH from the White Shrimp Litopenaeus vannamei” (Biomolecules, 2019).

The target in this experiment is T1, LvFSH (LvFHS) (Penaeus vannamei, UniProt A0A3R7MXL5).
T1 construct: gene C7M84_009540; synthetic codon-optimised gene of LvFSH coding region, N-terminal 10-His tag (cutting not mentioned), pJexpress414, E. coli BL21DE3-SI; about 27 kDa on SDS-PAGE, about 58 kDa by gel filtration (probable dimer); catalytic triad Ser111/Asp169/His196 proposed; C-terminal motif KMRELC 214-219
Kind of experiment: spectrophotometric p-nitrophenol release at […] nm, non-linear Michaelis-Menten fit. The format is biochemical. The settings on record: 50 mM Tris-HCl pH 8.0, 37 °C, 0.2% (v/v) Triton X-100, 50 mM NaCl; substrate 0.05-2 mM in ethanol.

Structures are written as SMILES.

T1 sequence (A0A3R7MXL5 entry or part of it): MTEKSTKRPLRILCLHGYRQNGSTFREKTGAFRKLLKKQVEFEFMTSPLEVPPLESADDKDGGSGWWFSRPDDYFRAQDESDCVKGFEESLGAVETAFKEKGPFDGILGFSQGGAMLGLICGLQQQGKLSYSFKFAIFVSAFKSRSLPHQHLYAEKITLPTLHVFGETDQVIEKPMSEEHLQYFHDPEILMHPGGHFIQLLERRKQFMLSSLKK

With `CC(=O)Oc1ccc([N+](=O)[O-])cc1` [p-nitrophenyl acetate], the Km amounted to 1000 ± 40 µM.
